# Data taken from US7179806B2, “Δ1-pyrrolines used as pesticides” (Bayer Cropscience AG, priority 2000, dated 2007).
# System: greenhouse red spider mite (tetranychus urticae)
# Assay: Tetranychus test (OP-resistant/dip treatment)
# Format: in vivo
# Conditions: active compound concentration 100 ppm, OP-resistant, dip treatment
# Experimental: Tetranychus Test (OP Resistant/Dip Treatment)
# To produce a suitable preparation of active compound, 1 part by weight of active compound is mixed with the stated amounts of solvent and emulsifier, and the concentrate is diluted with emulsifier-containing water to the desired concentration.
# Bean plants (Phaseolus vulgaris) which are heavily infested by all stages of the greenhouse red spider mite (tetranychus urticae) are dipped into a preparation of active compound of the desired concentration.
# After the desired period of time, the effect in % is determined. 100% means that all spider mites have been killed; 0% means that none of the spider mites have been killed.
row,Structure (SMILES),Kill rate in % after 7 d [%]
1,Fc1cccc(F)c1C1=NC(c2ccc(-c3cncnc3)cc2)CC1 (centres unmarked) [drawing 293],98
2,Fc1cccc(F)c1C1=NC(c2ccc(-c3ccc(Cl)cn3)cc2)CC1 (centres unmarked) [drawing 294],98
3,CN(C)c1ncc(-c2ccc(C3CCC(c4c(F)cccc4F)=N3)cc2)cn1 (centres unmarked) [drawing 295],98
4,CC(C)Oc1ncc(-c2ccc(C3CCC(c4c(F)cccc4F)=N3)cc2)cn1 (centres unmarked) [drawing 296],98
5,CC(C)Sc1ccc(-c2ccc(C3CCC(c4c(F)cccc4F)=N3)cc2)nn1 (centres unmarked) [drawing 297],98
6,Fc1cccc(F)c1C1=NC(c2ccc(-c3cnc(N4CCOCC4)nc3)cc2)CC1 (centres unmarked) [drawing 298],98
7,Fc1cccc(F)c1C1=NC(c2ccc(-c3ccc(Cl)nc3)cc2)CC1 (centres unmarked) [drawing 299],98

# System: Heliothis virescens caterpillars
# Assay: Heliothis virescens test (soya bean shoots dipped)
# Format: in vivo
# Conditions: active compound concentration 40 ppm
# Experimental: (§1) Heliothis Virescens Test To produce a suitable preparation of active compound, 1 part by weight of active compound is mixed with the stated amounts of solvent and emulsifier, and the concentrate is diluted with emulsifier-containing water to the desired concentration. Soya bean shoots (Glycine max) are treated by being dipped into the preparation of active compound of the desired concentration and are populated with Heliothis virescens caterpillars whilst the leaves are still moist. After the desired period of time, the kill in % is determined. 100% means that all caterpillars have been killed; 0% means that none of the caterpillars have been killed.
row,Structure (SMILES),Kill rate in % after 7 d [%]
1,Fc1cccc(F)c1C1=NC(c2ccc(-c3ccc(OCC(F)(F)F)nn3)cc2)CC1 (centres unmarked) [drawing 264],100
2,CC(C)Oc1ncc(-c2ccc(C3CCC(c4c(F)cccc4F)=N3)cc2)cn1 (centres unmarked) [drawing 265],100
3,Fc1cccc(F)c1C1=NC(c2ccc(-c3ccc(C(F)(F)F)cn3)cc2)CC1 (centres unmarked) [drawing 266],100
4,CCCN(CC)c1ncc(-c2ccc(C3CCC(c4c(F)cccc4F)=N3)cc2)cn1 (centres unmarked) [drawing 268],100

# Same assay, conditions: active compound concentration 500 ppm
row,Structure (SMILES),Kill rate in % after 7 d [%]
1,Fc1cccc(F)c1C1=NC(c2ccc(-c3ccc(OCC(F)(F)F)nc3)cc2)CC1 (centres unmarked) [drawing 267],100
2,Fc1cccc(F)c1C1=NC(c2ccc(-c3ccc(N4CCOCC4)nc3)cc2)CC1 (centres unmarked) [drawing 269],100

# System: army worm (Spodoptera frugiperda) caterpillars
# Assay: Spodoptera frugiperda test (cabbage leaves dipped)
# Format: in vivo
# Conditions: 168 h, active compound concentration 500 ppm, after 7 d, read-out: Kill rate in % after 7 d
# Experimental: as §1, with “Spodoptera frugiperda” for “Heliothis Virescens”, “Cabbage leaves (Brassica oleracea)” for “Soya bean shoots (Glycine max)”, “army worm (Spodoptera frugiperda)” for “Heliothis virescens”
row,Structure (SMILES),pest or weed control at 500 ppm [%]
1,CN(c1ccc(-c2ccc(C3CCC(c4c(F)cccc4F)=N3)cc2)nn1)S(=O)(=O)C(F)(F)F (centres unmarked) [drawing 286],100
2,CCCCN(CCCC)c1ccc(-c2ccc(C3CCC(c4c(F)cccc4F)=N3)cc2)nn1 (centres unmarked) [drawing 287],100

# Same assay, conditions: 168 h, active compound concentration 1000 ppm, after 7 d, read-out: Kill rate in % after 7 d
row,Structure (SMILES),pest or weed control at 1000 ppm [%]
1,CCCCCCC(=O)N(c1ccc(-c2ccc(C3CCC(c4c(F)cccc4F)=N3)cc2)nn1)C1CCCC1 (centres unmarked) [drawing 289],100
2,CCCCCCN(C(=O)C(C)(C)C)c1ccc(-c2ccc(C3CCC(c4c(F)cccc4F)=N3)cc2)nn1 (centres unmarked) [drawing 290],100
3,CC(C)COc1ncc(-c2ccc(C3CCC(c4c(F)cccc4F)=N3)cc2)cn1 (centres unmarked) [drawing 291],100
4,CC1CC(C)CN(c2ncc(-c3ccc(C4CCC(c5c(F)cccc5F)=N4)cc3)cn2)C1 (centres unmarked) [drawing 292],100

# System: army worm (Spodoptera exigua) caterpillars
# Assay: Spodoptera exigua test (cabbage leaves dipped)
# Format: in vivo
# Conditions: active compound concentration 500 ppm
# Experimental: as §1, with “Spodoptera Exigua” for “Heliothis Virescens”, “Cabbage leaves (Brassica oleracea)” for “Soya bean shoots (Glycine max)”, “army worm (Spodoptera exigua)” for “Heliothis virescens”
row,Structure (SMILES),Kill rate in % after 7 d [%]
1,Fc1cccc(F)c1C1=NC(c2ccc(-c3ccc(OCC(F)(F)F)nc3)cc2)CC1 (centres unmarked) [drawing 277],100
2,CCCN(CC)c1ncc(-c2ccc(C3CCC(c4c(F)cccc4F)=N3)cc2)cn1 (centres unmarked) [drawing 278],100

# Same assay, conditions: active compound concentration 1000 ppm
row,Structure (SMILES),Kill rate in % after 7 d [%]
1,Fc1cccc(F)c1C1=NC(c2ccc(-c3ccc(N4CCOCC4)nc3)cc2)CC1 (centres unmarked) [drawing 279],100

# System: larvae of the mustard beetle (Phaedon cochleariae)
# Assay: Phaedon larvae test (cabbage leaves dipped)
# Format: in vivo
# Conditions: active compound concentration 1000 ppm
# Experimental: as §1, with “Phaedon Larvae” for “Heliothis Virescens”, “Cabbage leaves (Brassica oleracea)” for “Soya bean shoots (Glycine max)”, “larvae of the mustard beetle (Phaedon cochleariae)” for “Heliothis virescens caterpillars”, “beetle larvae” for “caterpillars”
row,Structure (SMILES),Kill rate in % after 7 d [%]
1,CC(C)Oc1ncc(-c2ccc(C3CCC(c4c(F)cccc4F)=N3)cc2)cn1 (centres unmarked) [drawing 270],100
2,Fc1cccc(F)c1C1=NC(c2ccc(-c3ccc(C(F)(F)F)cn3)cc2)CC1 (centres unmarked) [drawing 271],100
3,CC(C)Sc1ncc(-c2ccc(C3CCC(c4c(F)cccc4F)=N3)cc2)cn1 (centres unmarked) [drawing 272],100
4,Fc1cccc(F)c1C1=NC(c2ccc(-c3ccc(OCC(F)(F)F)nc3)cc2)CC1 (centres unmarked) [drawing 273],100
5,CCCN(CC)c1ncc(-c2ccc(C3CCC(c4c(F)cccc4F)=N3)cc2)cn1 (centres unmarked) [drawing 274],100
6,CC1CC(C)CN(c2ncc(-c3ccc(C4CCC(c5c(F)cccc5F)=N4)cc3)cn2)C1 (centres unmarked) [drawing 275],100
7,Fc1cccc(F)c1C1=NC(c2ccc(-c3cnc(N4CCCCC4)nc3)cc2)CC1 (centres unmarked) [drawing 276],100
